Data on one compound can be found in article PMC6100113, “Involvement of CYP4F2 in the Metabolism of a Novel Monophosphate Ester Prodrug of Gemcitabine and Its Interaction Potential In Vitro” (Molecules : A Journal of Synthetic Chemistry and Natural …, 2018).

SMILES strings stand for the structures.

One data set has as its target T1, CYP4F2 (Homo sapiens, UniProt P78329).
T1 construct: purchased Corning Gentest
T1 sequence (P78329 5-520): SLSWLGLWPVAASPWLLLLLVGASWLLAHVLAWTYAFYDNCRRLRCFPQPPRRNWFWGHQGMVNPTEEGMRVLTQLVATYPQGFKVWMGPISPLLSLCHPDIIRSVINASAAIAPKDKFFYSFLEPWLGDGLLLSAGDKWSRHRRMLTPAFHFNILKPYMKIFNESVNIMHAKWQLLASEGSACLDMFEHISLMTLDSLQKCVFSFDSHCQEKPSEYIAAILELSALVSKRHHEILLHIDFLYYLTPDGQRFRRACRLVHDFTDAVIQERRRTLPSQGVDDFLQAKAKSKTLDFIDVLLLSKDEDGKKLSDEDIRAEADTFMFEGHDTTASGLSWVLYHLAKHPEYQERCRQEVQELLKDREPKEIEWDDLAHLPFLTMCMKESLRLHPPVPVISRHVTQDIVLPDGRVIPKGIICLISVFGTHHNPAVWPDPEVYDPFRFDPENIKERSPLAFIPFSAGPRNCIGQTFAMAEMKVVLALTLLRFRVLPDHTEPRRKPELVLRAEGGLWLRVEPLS
In words: Reaction phenotyping with recombinant CYP4F2. In kind it is in vitro ADME. The note with it: recombinant CYP4F2 50 nM, 1 μM, NADPH, after 30 min incubation. As to the method: Compound-3 was incubated separately with human cDNA-expressed cytochrome P450s (CYP1A2, CYP2B6, CYP2C8, CYP2C9, CYP2C19, CYP2D6, CYP3A4, CYP4A11, CYP4F2 and CYP4F3). The incubation mixtures contained individual CYP isoenzymes (50 nM), potassium phosphate buffer (100 mM, pH 7.4), NADPH (1 mM), and Compound-3 (1 µM). The final volume of the incubation mixture was 50 µL. Before the start of the incubation, reaction mixtures were warmed up at 37 °C for 10 min. The reaction was initiated with the addition of NADPH and the incubations were performed at 37 °C in a water bath. […] Control samples without NADPH but substrates were included. The samples were then centrifuged and aliquots of 10 μL of the supernatants were transferred onto LC-MS/MS for the analysis of Compound-3 and M4 (carboxylic acid) levels.
The following are available online. Figure S1. Gemcitabine Formation from Compound-3 Hydrolysis as a function of alkaline phosphatase protein concentrations. Compound-3 (1 μM) was incubated with alkaline phosphatase concentrations ranging from 0.01–0.2 mg/mL at 37 °C (n = 3). Figure S2. Metabolites of Compound-3 in human recombinant CYP4F2. Compound-3 (1 μM) was incubated with human recombinant CYP4F2 (50 nM) in the presence of NADPH at 37 °C (n = 3).

For data set [1], the system named is CYP1A2, CYP2B6, CYP2C8, CYP2C9, CYP2C19, CYP2D6, CYP4A11 and CYP4F3. The experiment in a line: Reaction phenotyping with the rest of the recombinant CYP isozymes. In kind it is in vitro ADME, human. The settings on record: 50 nM, 1 μM, NADPH. Here is the method:
Compound-3 was incubated separately with human cDNA-expressed cytochrome P450s (CYP1A2, CYP2B6, CYP2C8, CYP2C9, CYP2C19, CYP2D6, CYP3A4, CYP4A11, CYP4F2 and CYP4F3). The incubation mixtures contained individual CYP isoenzymes (50 nM), potassium phosphate buffer (100 mM, pH 7.4), NADPH (1 mM), and Compound-3 (1 µM). The final volume of the incubation mixture was 50 µL. Before the start of the incubation, reaction mixtures were warmed up at 37 °C for 10 min. The reaction was initiated with the addition of NADPH and the incubations were performed at 37 °C in a water bath. After 60 min of incubation, the reactions were terminated with an equal volume of ice-cold acetonitrile containing the internal standard. Control samples without NADPH but substrates were included. The samples were then centrifuged and aliquots of 10 μL of the supernatants were transferred onto LC-MS/MS for the analysis of Compound-3 and M4 (carboxylic acid) levels.

The next data set has as its system alkaline phosphatase. In words: Hydrolysis of Compound-3 by alkaline phosphatase (gemcitabine formation). In kind it is in vitro ADME. Set-up: key to detected in matrix ALP: √: metabolites were detected by high-resolution mass spectrometry. As to the method:
Compound-3 was incubated with alkaline phosphatase, and the linearity of gemcitabine formation as a function of time and protein concentration was first examined. The reaction mixtures consisted of alkaline phosphatase, 100 mM phosphate buffer (pH 7.4) and Compound-3 (10 μM). The final volume of the incubation mixture was 200 μL. The mixture was warmed up at 37 °C for 2 min prior to the initiation of the reaction with the addition of the enzyme. At specified time points, 25 μL of the incubation mixtures was added to 100 μL cold acetonitrile containing the internal standard to terminate the reaction. Levels of gemcitabine were determined by LC-MS/MS. […] Compound-3 was tested at concentrations ranging from 0 to 200 μM. Kinetic parameters of Compound-3 in alkaline phosphatase were calculated using GraphPad Prism (Version 6.0, GraphPad Software Inc., San Diego, CA) and nonlinear regression analysis. Equation used was as the following (the Michaelis-Menten equation):V = (Vmax × [S])/(Km + [S])(1) where V is the rate of metabolite formation, Vmax is the maximum velocity, Km is the Michaelis constant (substrate concentration at 0.5 Vmax), and [S] is the substrate concentration.

Data set [2] can be described thus: Metabolic stability in human intestinal microsomes. In kind it is in vitro ADME. The settings on record: human intestinal microsomes 0.2 mg/mL, with NADPH, 1 μM, 37 °C. Here is the method: (§1) Stability of Compound-3 was first investigated in microsomal systems from human and rat. The microsomal protein and Compound-3 concentrations were optimized to 0.2 mg/mL and 1 µM, respectively. Before the start of the incubation, reaction mixtures containing phosphate buffer (100 mM, pH 7.4), microsomes and Compound-3 in a total volume of 50 µL were warmed up at 37 °C for 10 min. The reaction was started with the addition of NADPH at a final concentration of 1 mM. Incubations were terminated at a specified time with the addition of 100 µL ice-cold acetonitrile containing the internal standard. The samples were then centrifuged, and aliquots of 10 µL of the supernatants were transferred into liquid chromatography-tandem mass spectrometry (LC-MS/MS) for the analysis of Compound-3 levels.

Data set [3] concerns H460 tumor xenograft (non-small cell lung cancer). The settings on record: cited from earlier work.
Data set [4] in a line: Metabolic stability in human liver microsomes. In kind it is in vitro ADME. The note with it: 1 μM. As to the method:
as §1

Setting [5] is: alkaline phosphatase 0.1 mg/mL protein, 60 min, 37 °C, Michaelis-Menten.

In the case of `CCCCCCCCCCCCCCCCCCOCCOP(=O)(O)OCC1OC(n2ccc(N)nc2=O)C(F)(F)C1O` (stereo not drawn) [Compound-3], the “disappearance of Compound-3 in the presence of CYP isozyme” value at CYP4F2 is on record as “barely detectable”. Moreover, the “metabolism of Compound-3 by CYP isozyme” value in data set [1] is “did not participate”. For the same compound, the Km in the data set with alkaline phosphatase (setting [5]) was determined as 57.2 µM. Also, in the data set with alkaline phosphatase (setting [5]), the “Vmax of gemcitabine formation” value was 60.8 pmol/min/mg-protein. Moreover, the “detected in matrix ALP” value in the data set with alkaline phosphatase (incubation of Compound-3 with alkaline phosphatase, HRMS) is “√”. In addition, the “disappearance after 60 min incubation” value in data set [2] is reported as > 50%; in data set [4] (human liver microsomes 0.2 mg/mL, with NADPH, 37 °C, 60 min) it was “more than 70%”. Besides, the “oral activity in tumor xenograft model” value in data set [3] is given as “orally active”. In addition, the “stability in microsomes in the absence of NADPH” value in data set [4] (human and rat liver and intestinal microsomes, absence of NADPH) is “relatively stable”.

What is called Km is the concentration of substrate that gives half-maximal velocity.
